Assay results as given in US7928206B2 (priority 2002, dated 2011).
Read-outs that look alike come from different tables or passages of the source.

How the values were obtained:
[1] = target: T1, rAT-ΔN45TK1b, Arabidopsis thaliana thymidine kinase AT-TK1b (SEQ ID NO: 13) with N-terminal deletion of 45 amino acids (Arabidopsis thaliana, UniProt F4KBF5); conditions: substrate Thd; data from Le Breton C, B. Sc. Report 2002; cited from earlier work
T1 sequence (F4KBF5 51-282): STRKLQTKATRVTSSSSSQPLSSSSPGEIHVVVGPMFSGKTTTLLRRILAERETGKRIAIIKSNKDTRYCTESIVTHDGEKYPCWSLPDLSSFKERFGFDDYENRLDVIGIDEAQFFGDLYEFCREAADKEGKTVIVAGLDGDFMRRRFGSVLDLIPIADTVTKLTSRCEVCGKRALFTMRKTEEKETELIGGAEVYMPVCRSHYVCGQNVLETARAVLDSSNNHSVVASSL

[2] = target: T2, rAT-TK1a, Arabidopsis thaliana thymidine kinase AT-TK1a, recombinant wild type, SEQ ID NO: 9 (Arabidopsis thaliana, UniProt Q9S750); conditions: substrate Thd, data from Le Breton C, B. Sc. Report 2002, cited from earlier work
[3] = dTMP kinase activity (monophosphate to diphosphate); type: biochemical; conditions: 30 mU enzyme, 100 μM 3H-labelled substrate, 0 to 120 minutes
Experimental: (§1) 5 μl, of this mixture were plated on polyethylenimine-cellulose plates, which were developed ascending in 0.5 M […]. The spots with the nucleosides and nucleotides were identified under UV light and cut out.
The radioactivity in the spots was extracted with 0.2 M KCl in 0.1 M HCl, and determined by liquid scintillation counting. 1 pmol radioactive nucleoside/tide counts 850 cpm.
The cpm obtained at the indicated times (15, 30, 60, 90 and 120 minutes, respectively) are determined in the TDP spots derived from 2.5 μl of the reaction mixture.

[4] = AZT monophosphate kinase activity; type: biochemical; conditions: 30 mU enzyme, 100 μM 3H-labelled substrate
Experimental: as §1
The radioactivity in the spots was extracted with 0.2 M KCl in 0.1 M HCl, and determined by liquid scintillation counting. 1 pmol radioactive nucleoside/tide counts 850 cpm. […]

Glioblastoma U-87 MG = assay: Cell proliferation assay (XTT), sensitivity to AZT of transduced cells; type: cell-based; conditions: Homo sapiens, parental U-87 MG, construct None
Experimental: 293T packaging cells (ATTC CRL-11268) were cultured at 37° C. in OPTIMEM 1 medium (Life Technologies, Inc.). The constructed pLCXSN plasmid vector was transfected into the packaging cells using LipofectAMINE PLUS (Life Technology Inc.) according to the protocol provided by the supplier. The medium from the transfected cells was collected 48 hours after transfection, filtered through a […] filter, pelleted by ultracentrifugation (50,000×g, 90 minutes at 4° C.) and dissolved in TEN buffer (100 mM NaCl, 10 mM Tris pH 7.5, 1 mM EDTA).
The virus-containing buffer was subsequently used to transduce the cancer cell lines with MOI of 5.
(§2) Each experiment was performed in four replicates.

[5] = target: rTOM-TK1, tomato (Lycopersicum esculentum) thymidine kinase, recombinant wild type, SEQ ID NO: 4 (Solanum lycopersicum, UniProt Q71F77); type: biochemical; conditions: substrate AZT
Experimental: (§3) Transformed KY895 were grown to an OD600 nm of 0.5-06 in LB/Ampicillin (100 μg/ml) medium at 37° C. and protein expression was induced by addition of IPTG to make 100 μM. The cells were further grown for 4 h at 25° C. and subsequently harvested by centrifugation.

[6] = target: T1, rAT-ΔN45TK1b, Arabidopsis thaliana thymidine kinase AT-TK1b (SEQ ID NO: 13) with N-terminal deletion of 45 amino acids; assay: Kinetic constants of purified recombinant thymidine kinase (rAT-ΔN45TK1b); type: biochemical, thale cress (Arabidopsis thaliana); conditions: substrate AZT
Experimental: An N-terminal deletion of 45 amino acids was achieved by using the primers
The resulting plasmid was named pGEX-2T-AT-ΔN45TK1b (P663).
as §3

[7] = target: T2, rAT-TK1a, Arabidopsis thaliana thymidine kinase AT-TK1a, recombinant wild type, SEQ ID NO: 9; assay: Kinetic constants of purified recombinant thymidine kinase (rAT-TK1a); type: biochemical, thale cress (Arabidopsis thaliana); conditions: substrate AZT
Experimental: as §3

[8] = target: rHSV1-TK, human Herpes simplex virus type 1 thymidine kinase (Human alphaherpesvirus 1 strain 17, UniProt P0DTH5); assay: Kinetic constants of purified recombinant thymidine kinase (rHSV1-TK); type: biochemical; conditions: substrate AZT
Chain of rHSV1-TK, human Herpes simplex virus type 1 thymidine kinase (P0DTH5 whole entry): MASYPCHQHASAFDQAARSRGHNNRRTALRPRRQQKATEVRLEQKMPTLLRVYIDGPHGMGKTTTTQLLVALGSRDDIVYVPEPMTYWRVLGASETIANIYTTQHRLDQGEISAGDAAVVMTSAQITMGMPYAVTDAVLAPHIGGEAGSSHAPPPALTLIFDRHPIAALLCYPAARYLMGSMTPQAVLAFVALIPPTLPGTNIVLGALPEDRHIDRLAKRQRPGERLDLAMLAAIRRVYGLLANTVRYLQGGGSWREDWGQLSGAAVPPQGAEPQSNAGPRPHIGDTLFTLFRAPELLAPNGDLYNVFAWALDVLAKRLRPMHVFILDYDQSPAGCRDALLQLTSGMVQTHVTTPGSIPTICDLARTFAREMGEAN
Experimental: as §3

[9] = Cell proliferation (XTT), sensitivity to AZT; type: cell-based; conditions: Homo sapiens, U-87 MG, 120 h, 5 days of drug exposure
Experimental: (§4) Arabidopsis constructs based on AT-TK1a were cut with BamHI/XhoI, and tomato PCR fragments were cut with BglII/XhoI, and cloned into the BglII-XhoI site of plasmid vector pLCXSN, which is a retroviral transfer vector derived from pLXSN (Clontech, cat# K1060-B) by insertion of the CMV promoter upstream of the polylinker.
as §2

[10] = test system: glioblastoma U-87 MG cells transduced with PZG53: AtTK1 (AT-TK1a, Arabidopsis thaliana, SEQ ID NO: 9); assay: Cell proliferation (XTT), sensitivity to AZT; type: cell-based; conditions: Homo sapiens, 120 h, 5 days of drug exposure
Experimental: as §4, §2

[11] = test system: glioblastoma U-87 MG cells transduced with PZG69: TomTK1 (tomato TK1, SEQ ID NO: 4); assay: cells; conditions: Homo sapiens, 120 h, 5 days of drug exposure
Experimental: as §4, §2

[12] = test system: glioblastoma U-87 MG cells transduced with HSV1-TK (human Herpes simplex virus type 1 thymidine kinase); assay: Cell proliferation (XTT), sensitivity to AZT; type: cell-based; conditions: 120 h, 5 days of drug exposure
Experimental: as §2

[13] = test system: glioblastoma U-87 MG cells transduced with pLCXSN (retroviral vector alone); assay: cells; conditions: Homo sapiens, 120 h, 5 days of drug exposure
[14] = Kinetic constants of purified recombinant TK, substrate AZT; conditions: from Tables 6 and 7
[15] = transient polyclonal cell lines

Question: With `Cc1cn([C@H]2C[C@H](O)[C@@H](CO)O2)c(=O)[nH]c1=O` [Thd, thymidine] as the molecule, how does the “Vmax for Thd” value [1] read?
Answer: 165 mU/mg

Question: And the “kcat for Thd” value [1]?
Answer: 0.071 s⁻¹

Question: What about the Km ([2]; read-out: Km for Thd) of the same molecule?
Answer: 85 µM

Question: What about the “Vmax for Thd” value [2] of the same molecule?
Answer: 452 mU/mg

Question: What about the “kcat for Thd” value [2] of the same molecule?
Answer: 0.2 s⁻¹

Question: Which “phosphorylation of TMP to TDP” value [3] does the source give for “HSV1-TK: human Herpes simplex virus type 1 thymidine kinase, control; in Table 4 expressed from the pLCXSN vector, in Example 6 purified enzyme” here?
Answer: phosphorylates both substrates

Question: And the “degree of phosphorylation of AZT-monophosphate, lower than the thymidine substrate” value [4]?
Answer: 10 fold

Question: And the “phosphorylation of AZT-monophosphate” value ([4]; 0 to 120 minutes)?
Answer: phosphorylates both substrates

Question: For `Cc1cn([C@H]2C[C@H](N=[N+]=[N-])[C@@H](CO)O2)c(=O)[nH]c1=O` [AZT, 3′-azido-3′-deoxythymidine], which IC50 (Glioblastoma U-87 MG; listed under stable polyclonal cell lines) is on record?
Answer: 2440 µM

Question: And the IC50 (Glioblastoma U-87 MG; listed under transient polyclonal cell lines)?
Answer: 4470 µM

Question: And the Km [5]?
Answer: 22.4 µM

Question: And the “Vmax for AZT” value [5]?
Answer: 1579 mU/mg

Question: And the “kcat for AZT” value [5]?
Answer: 0.681 s⁻¹

Question: What about the “Vmax for AZT” value [6] of the same molecule?
Answer: 242 mU/mg

Question: And the “kcat for AZT” value [6]?
Answer: 0.104 s⁻¹

Question: What about the Km [7] of the same molecule?
Answer: 3.55 µM

Question: And the “Vmax for AZT” value [7]?
Answer: 244 mU/mg

Question: And the “kcat for AZT” value [7]?
Answer: 0.106 s⁻¹

Question: What about the Km ([8]; read-out: Km for AZT) of the same molecule?
Answer: 1.7 µM

Question: And the “Vmax for AZT” value [8]?
Answer: 4.1 mU/mg

Question: What about the “kcat for AZT” value [8] of the same molecule?
Answer: 0.028 s⁻¹

Question: And the IC50 ([9]; stable polyclonal cell lines, cells transduced with PZG56 construct)?
Answer: 132 µM

Question: And the IC50 ([9]; stable polyclonal cell lines, cells transduced with PZG59 construct)?
Answer: 25.1 µM

Question: What about the IC50 ([9]; transient polyclonal cell lines, cells transduced with PZG56 construct) of the same molecule?
Answer: 303 µM

Question: What about the IC50 ([9]; transient polyclonal cell lines, cells transduced with PZG59 construct) of the same molecule?
Answer: 26 µM

Question: What about the IC50 ([10]; stable polyclonal cell lines) of the same molecule?
Answer: 71.9 µM

Question: And the IC50 [10, 15]?
Answer: 97 µM

Question: And the IC50 ([11]; stable polyclonal cell lines)?
Answer: 17 µM

Question: What about the IC50 [11, 15] of the same molecule?
Answer: 47 µM

Question: What about the IC50 ([12]; stable polyclonal cell lines) of the same molecule?
Answer: 2580 µM

Question: And the IC50 [12, 15]?
Answer: > 5000 µM

Question: And the IC50 ([13]; stable polyclonal cell lines)?
Answer: 4070 µM

Question: And the IC50 [13, 15]?
Answer: > 5000 µM

B1: rAT-TK1a: purified recombinant Arabidopsis thaliana thymidine kinase TK1a, SEQ ID NO: 9 (protein, listed as Arabidopsis thaliana)
chain: MATLKASFLIKTLDSDVTGDFLSDLERRGSGAVHVIMGPMFSGKSTSLLRRIKSEISDGRSVAMLKSSKDTRYAKDSVVTHDGIGFPCWALPDLMSFPEKFGLDAYNKLDVIGIDEAQFFGDLYEFCCKVADDDGKIVIVAGLDGDYLRRSFGAVLDIIPIADSVTKLTARCEVCGHKAFFTLRKNCDTRTELIGGADVYMPVCRKHYITNHIVIKASKKVLEDSDKARAESCVAATI
Question: For B1, which “ratio [kcat/Km (Thd)]/[kcat/Km (AZT)]” value [14] is on record?
Answer: 0.08

B2: rTOM-TK1: purified recombinant tomato (Lycopersicum esculentum) thymidine kinase, SEQ ID NO: 4 (protein, listed as Lycopersicon esculentum)
chain: MAFSSSARNPVDLRNGSKNSFCPVGEIHVIVGPMFAGKTTALLRRVNLESNDGRNVVLIKSSKDARYAVDAVVTHDGTRFPCWSLPDLSSFKQRFGKDAYEKVDVIGIDEAQFFGDLYEFCCNAADFDGKIIVVAGLDGDYLRKSFGSVLDIIPLADTVTKLTARCELCNRRAFFTFRKTNETETELIGGADIYMPVCRQHYVNGQSVNESAKMVLESHKVSNELILESPLVDP
Question: With B2 as the molecule, how does the “ratio [kcat/Km (Thd)]/[kcat/Km (AZT)]” value [14] read?
Answer: 1.07
